{"source": "patent US20200370056A1", "about": "“CELL LINES AND METHODS FOR INCREASED PROTEIN PRODUCTION” (ASTRAZENECA AB, priority 2017, published 2020)", "key": {"[1]": {"system": "HEK293 CriptoFC 1B8 cell line", "test": "Cripto-FC expression by flow cytometry, concentration response", "format": "cell-based", "conditions": "Homo sapiens, Cripto-FC model protein, 10 point concentration response, top concentration 6 μM, read-out: pAC50 for Improved Protein Expression, Cripto-FC (converted)", "method": "Human Embryonic Kidney (HEK) cells, Expi293F cell line, were co-transfected using Expifectamine with vectors for targeted integration of one of three model proteins, Cripto-Fc, PLAP and hGFRα2, and a vector expressing Zinc Finger Nucelases that target the AAVS1 locus in the genome. As shown below in Table 3, Cripto-Fc served as a high volume expressing protein, PLAP a medium expressing protein, and hGFRα2 as a low expressing protein. After 48 hours, selection with puromycin blasticidin were applied to enrich for cells with the vectors integrated. After 14 days, cells were sorted by flow cytometry as single cells in 96 well plates. After single colonies were isolated the cells were expanded and analyzed to determine the gene copy number of the recombinant target gene in each clone. […]\nTo confirm hits from the primary screen, the available positive hits were subjected to the counter screening without addition of antibody-conjugates to remove flourescent compounds. In parallel, a 10 point concentration response curve with a top concentration of 6 μM for each of the compounds was determined. Only compounds that lacked inherent fluorescence, and increased protein expression with at least 30% in a dose-dependent mariner were counted as confirmed hits. […]"}, "HEK293 PLAP cell line": {"system": "HEK293 PLAP cell line", "test": "PLAP expression by secreted enzymatic activity (p-Nitrophenyl phosphate, 405 nm)", "format": "cell-based", "conditions": "Homo sapiens, PLAP model protein, enzymatic activity readout, read-out: pAC50 for Improved Protein Expression, PLAP (converted)", "method": "An additional study was performed on different cells expressing GRFα2 and PLAP. The same assay performed on HEk293 CriptoFC 1B8 was performed on a cell line containing a single gene copy of GFRA2. […] The activity measurement for PLAP is based on the degradation of p-Nitrophenyl phosphate to p-Nitrophenyl which can be followed as an increase in absorbance at 405 nm."}, "ULK1": {"target": "T1, ULK1 (Homo sapiens, UniProt O75385)", "T1 sequence (O75385 1-1050)": "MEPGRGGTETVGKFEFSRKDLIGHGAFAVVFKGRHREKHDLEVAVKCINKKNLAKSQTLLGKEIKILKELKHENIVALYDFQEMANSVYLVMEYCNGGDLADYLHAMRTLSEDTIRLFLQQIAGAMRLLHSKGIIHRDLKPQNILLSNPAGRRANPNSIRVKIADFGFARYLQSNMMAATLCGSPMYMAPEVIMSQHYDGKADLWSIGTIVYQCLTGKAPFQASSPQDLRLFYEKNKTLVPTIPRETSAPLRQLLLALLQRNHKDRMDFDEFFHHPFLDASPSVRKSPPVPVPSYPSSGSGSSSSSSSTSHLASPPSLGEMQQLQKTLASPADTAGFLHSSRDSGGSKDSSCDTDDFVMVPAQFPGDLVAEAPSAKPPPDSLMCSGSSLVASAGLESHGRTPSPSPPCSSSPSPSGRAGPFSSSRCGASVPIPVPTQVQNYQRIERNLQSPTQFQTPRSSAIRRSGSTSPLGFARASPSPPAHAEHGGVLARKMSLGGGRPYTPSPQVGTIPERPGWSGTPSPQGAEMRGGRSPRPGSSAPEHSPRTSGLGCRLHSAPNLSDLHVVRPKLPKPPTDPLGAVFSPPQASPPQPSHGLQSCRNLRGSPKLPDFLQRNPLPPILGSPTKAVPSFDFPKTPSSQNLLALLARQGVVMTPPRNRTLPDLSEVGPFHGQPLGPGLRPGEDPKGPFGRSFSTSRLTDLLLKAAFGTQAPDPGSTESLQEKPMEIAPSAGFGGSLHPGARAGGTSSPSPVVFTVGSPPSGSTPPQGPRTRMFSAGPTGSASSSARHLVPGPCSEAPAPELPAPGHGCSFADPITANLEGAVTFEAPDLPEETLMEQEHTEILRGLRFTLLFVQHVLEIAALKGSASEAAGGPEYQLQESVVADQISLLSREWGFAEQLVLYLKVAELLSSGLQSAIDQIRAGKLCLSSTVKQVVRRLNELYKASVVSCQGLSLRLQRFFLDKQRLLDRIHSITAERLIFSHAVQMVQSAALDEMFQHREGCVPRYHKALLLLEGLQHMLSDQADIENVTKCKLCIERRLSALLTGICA", "conditions": "cited from earlier work"}}, "data": [{"smiles": "CN1CCc2cc(Nc3ncc(C4CC4)c(NCCCNC(=O)C4CCC4)n3)ccc2C1", "note": "[MRT68921]", "values": [{"measurement": "AC50", "setting": "[1]", "result": 79.4, "unit": "nM"}, {"measurement": "AC50", "setting": "HEK293 PLAP cell line", "result": 60.3, "unit": "nM"}, {"measurement": "IC50", "setting": "ULK1", "result": "~2.9", "unit": "nM"}]}]}
